Measured values as given in US20240246920A1, “TRIAZOLE DERIVATIVES WITH ANTIFUNGAL ACTIVITY” (King's College London, priority 2020, published 2024).
Values after ≈ are worked out from the molar mass of the structure shown. Where two headings read alike, the source gives them in different places.

Experiments:
[1] = test system: C. albicans NCPF3281; assay: Candida panel MIC, serial dilution in 96-well plates; type: cell-based, Candida albicans; details: Candida albicans, read-out: MIC C. albicans NCPF3281
Description: (§1) The minimum inhibitory concentration of test compounds were determined in a panel of Candida species (see Table 4 below), using the a serial dilution method in 96-well plates using the following protocol.
(§2) Starter cultures of fungal strains to be tested were grown in 3 mL of RPMI 2% glucose media incubated at 37° C. with shaking at 200 rpm overnight. The culture media used was 900 mL H2O; 10.4 g RPMI 1640 (with L-glutamine and a pH indicator but without bicarbonate); 34.5 g MOPS and 18 g glucose. The pH of the media was adjusted to 7.0 with 1 M sodium hydroxide.
(§3) Solutions of the compound to be tested were prepared by dissolving the compound in DMSO and subsequently into media to the desired concentrations. 200 μL of compound solution was then added to the wells of the 96-well plate using a serial dilution method row-by row of the plate to give a compound concentration gradient across the plate of from 128 μg/mL to 0.25 μg/mL. The last two rows of each plate were control rows containing the culture media alone and the media plus fungi.
(§4) The fungi starter cultures were diluted 1:10 in water in cuvettes. This was then further diluted to an optical density (OD600) of 0.01 in media. 100 μL of the fungi was added to each well giving a starting concentration of fungus of 0.5-5×10^5/mL. One species of fungus was used on each plate. The plates were then held at 37° C. for 24 hours.
(§5) A plate reader was used to measure growth in each well at OD530 nm and the MIC was determined for each test compound. The MIC is defined as the lowest concentration giving rise to inhibition of ≥50% of that of the drug-free control well containing the fungus and media.

[2] = test system: C. parapsilosis NCPF3209; assay: microbe, parasite or virus in culture; type: cell-based, Candida parapsilosis; details: Lodderomyces parapsilosis
Description: as §1, §2
(§6) Solutions of the compound to be tested were prepared by dissolving the compound in DMSO and subsequently into media to the desired concentrations. […] The last two rows of each plate were control rows containing the culture media alone and the media plus fungi.
as §4, §5

[3] = test system: C. krusei NCPF3876; assay: microbe, parasite or virus in culture; type: cell-based, Candida krusei; details: Pichia kudriavzevii
Description: as §1, §2, §6, §4, §5

[4] = test system: C. glabrata NCPF8018; assay: Candida panel MIC, serial dilution in 96-well plates; type: cell-based, Candida glabrata; details: Nakaseomyces glabratus
Description: as §1, §2, §6, §4, §5

[5] = test system: Candida auris TDG2512; assay: as above; type: cell-based; details: Candidozyma auris, read-out: MIC Candida auris TDG2512
Description: as §1, §2, §3, §4, §5

[6] = test system: C. auris TDG1912; assay: as above; type: cell-based; details: Candidozyma auris, read-out: MIC C. auris TDG1912
Description: as §1, §2, §3, §4, §5

[7] = test system: C. tropicalis NCPF8760; assay: as above; type: cell-based
Description: as §1, §2, §3, §4, §5

[8] = test system: Candida auris TDG1102; assay: as above; type: cell-based; details: Candidozyma auris, TDG1102; Table 4, extended panel; 24 hours, ≥50% inhibition; read-out: MIC Candida auris TDG1102
Description: as §1, §2, §3, §4, §5

[9] = test system: Candida auris TDG2506; assay: microbe, parasite or virus in culture; type: cell-based; details: Candidozyma auris, TDG2506; Table 4, extended panel; 24 hours, ≥50% inhibition; read-out: MIC Candida auris TDG2506
Description: as §1, §2, §6, §4, §5
(§7) The Candida auris strains shown in Table 7 were either taken from the National Collection of Pathogenic Fungi (NCPF) or collected as part of ongoing surveillance studies. The strains were characterised as follows.

[10] = test system: Candida auris TDG2211; assay: microbe, parasite or virus in culture; type: cell-based; details: Candidozyma auris, TDG2211; Table 4, extended panel; 24 hours, ≥50% inhibition; read-out: MIC Candida auris TDG2211
Description: as §1, §2, §6, §4, §5, §7

[11] = test system: C. auris 8971; assay: Candida panel MIC, serial dilution in 96-well plates; type: cell-based, Candida auris; details: Candidozyma auris, 8971; Table 4, extended panel; 24 hours, ≥50% inhibition; read-out: MIC C. auris 8971
Description: as §1, §2, §6, §4, §5, §7

[12] = test system: C. auris 8984; assay: as above; type: cell-based, Candida auris; details: Candidozyma auris, 8984; Table 4, extended panel; 24 hours, ≥50% inhibition; read-out: MIC C. auris 8984
Description: as §1, §2, §6, §4, §5, §7

[13] = test system: C. auris 8977; assay: as above; type: cell-based, Candida auris; details: Candidozyma auris, 8977; Table 4, extended panel; 24 hours, ≥50% inhibition; read-out: MIC C. auris 8977
Description: as §1, §2, §6, §4, §5, §7

[14] = NCPF3281, Table 4, common panel, 24 hours, ≥50% inhibition
[15] = NCPF3209, Table 4, common panel, 24 hours, ≥50% inhibition, read-out: MIC C. parapsilosis NCPF3209
[16] = NCPF3876, Table 4, common panel, 24 hours, ≥50% inhibition, read-out: MIC C. krusei NCPF3876
[17] = NCPF8018, Table 4, common panel, 24 hours, ≥50% inhibition, read-out: MIC C. glabrata NCPF8018
[18] = TDG2512, Table 4, extended panel, 24 hours, ≥50% inhibition
[19] = TDG1912, Table 4, 24 hours, ≥50% inhibition
[20] = NCPF8760, Table 4, common panel, 24 hours, ≥50% inhibition, read-out: MIC C. tropicalis NCPF8760

Row | SMILES | MIC [1, 14] | MIC [2, 15] | MIC [3, 16] | MIC [4, 17] | MIC [5, 18] | MIC [6, 19] | MIC [7, 20] | MIC [8] | MIC [9] | MIC [10] | MIC [11] | MIC [12] | MIC [13] | MIC ([2]; NCPF3209, read-out: MIC C. Parapsilosis NCPF3209) | MIC ([3]; NCPF3876, read-out: MIC C. Krusei NCPF3876) | MIC ([4]; NCPF8018, read-out: MIC C. Glabrata NCPF8018) | MIC ([7]; NCPF8760, read-out: MIC C. Tropicalis NCPF8760) | MIC ([1]; NCPF3281, 24 h) | MIC ([5]; TDG2512, 24 h) | MIC ([6]; TDG1912, 24 h)
1 | OC(CN1CCC(N2CCC(Nc3ncc(F)cn3)CC2)CC1)(Cn1cncn1)c1ccc(F)cc1F (stereo not drawn) [Example 10, 2-(2,4-Difluorophenyl)-1-(4-((5-fluoropyrimidin-2-yl)amino)-[1,4′-bipiperidin]-1′-yl)-3-(1H-1,2,4-triazol-1-yl)propan-2-ol] | 15 ng/mL (≈ 0.029 µM) | 125 ng/mL (≈ 0.242 µM) | 32000 ng/mL (≈ 61.9 µM) | 64000 ng/mL (≈ 124 µM) | 500 ng/mL (≈ 0.968 µM) | 4000 ng/mL (≈ 7.74 µM) | 64000 ng/mL (≈ 124 µM) | 4000 ng/mL (≈ 7.74 µM) | 8000 ng/mL (≈ 15.5 µM) | 64000 ng/mL (≈ 124 µM) | 500 ng/mL (≈ 0.968 µM) | 500 ng/mL (≈ 0.968 µM) | 1000 ng/mL (≈ 1.94 µM) | – | – | – | – | – | – | –
2 | OC(CN1CCCC(Nc2ccc(Cc3ccccc3)cc2)CC1)(Cn1cncn1)c1ccc(F)cc1F (stereo not drawn) [Example 9, 1-(4-((4-Benzylphenyl)amino)azepan-1-yl)-2-(2,4-difluorophenyl)-3-(1H-1,2,4-triazol-1-yl)propan-2-ol] | < 4 ng/mL | ≤ 0.06 ng/mL | 8 ng/mL (≈ 0.0155 µM) | 125 ng/mL (≈ 0.241 µM) | 125 ng/mL (≈ 0.241 µM) | 500 ng/mL (≈ 0.966 µM) | 125 ng/mL (≈ 0.241 µM) | 1000 ng/mL (≈ 1.93 µM) | 500 ng/mL (≈ 0.966 µM) | 250 ng/mL (≈ 0.483 µM) | 120 ng/mL (≈ 0.232 µM) | 120 ng/mL (≈ 0.232 µM) | 0.1 ng/mL (≈ 0.000193 µM) | ≤ 0.06 ng/mL | 8 ng/mL (≈ 0.0155 µM) | 125 ng/mL (≈ 0.241 µM) | 500 ng/mL (≈ 0.966 µM) | – | – | –
3 | OC(CN1CCCC(Nc2ccc(OCCN3CCOCC3)cc2)CC1)(Cn1cncn1)c1ccc(F)cc1F (stereo not drawn) [Example 91] | 15.6 ng/mL (≈ 0.0281 µM) | 62.5 ng/mL (≈ 0.112 µM) | 2000 ng/mL (≈ 3.59 µM) | 16000 ng/mL (≈ 28.7 µM) | 125 ng/mL (≈ 0.225 µM) | 4000 ng/mL (≈ 7.19 µM) | 8000 ng/mL (≈ 14.4 µM) | 2000 ng/mL (≈ 3.59 µM) | 4000 ng/mL (≈ 7.19 µM) | 250 ng/mL (≈ 0.449 µM) | 500 ng/mL (≈ 0.898 µM) | 4000 ng/mL (≈ 7.19 µM) | 500 ng/mL (≈ 0.898 µM) | – | – | – | – | – | – | –
4 | OC(CN1CCCN(c2ccc(OCCN3CCOCC3)cc2)CC1)(Cn1cncn1)c1ccc(F)cc1F (stereo not drawn) [Example 89] | – | 31.3 ng/mL (≈ 0.0577 µM) | 500 ng/mL (≈ 0.921 µM) | 2000 ng/mL (≈ 3.69 µM) | – | – | 2000 ng/mL (≈ 3.69 µM) | 1000 ng/mL (≈ 1.84 µM) | 4000 to 8000 ng/mL (≈ 7.37 to 14.7 µM) | 500 ng/mL (≈ 0.921 µM) | 250 ng/mL (≈ 0.461 µM) | 4000 to 8000 ng/mL (≈ 7.37 to 14.7 µM) | 250 ng/mL (≈ 0.461 µM) | – | – | – | – | 156 ng/mL (≈ 0.287 µM) | 250 ng/mL (≈ 0.461 µM) | 1000 ng/mL (≈ 1.84 µM)
5 | OC(CN1CCC(Nc2ccc(Cc3ccc(F)cc3)cc2)CC1)(Cn1cncn1)c1ccc(F)cc1F (stereo not drawn) [Example 30, 2-(2,4-difluorophenyl)-1-(4-((4-(4-fluorobenzyl)phenyl)amino)piperidin-1-yl)-3-(1H-1,2,4-triazol-1-yl)propan-2-ol] | ≤ 125 ng/mL | ≤ 125 ng/mL | ≤ 125 ng/mL | ≤ 125 ng/mL | ≤ 125 ng/mL | ≤ 125 ng/mL | ≤ 125 ng/mL | ≤ 125 ng/mL | ≤ 125 ng/mL | ≤ 125 ng/mL | ≤ 125 ng/mL | ≤ 125 ng/mL | ≤ 125 ng/mL | – | – | – | – | – | – | –
